Experimental data reported in patent publication US8426569B2, “DNA capable of being amplified by PCR with high selectivity and high efficiency” (Riken, priority 2008, dated 2013).

Tests used:
DeepVent DNA polymerase [1] = biological target: T1, DeepVent DNA polymerase (Pyrococcus sp., UniProt Q51334, DEL493-1029); format: biochemical
DeepVent DNA polymerase [2] = biological target: T1, DeepVent DNA polymerase; format: biochemical; remark: listed apart in the source
[3] = biological target: Klenow fragment of DNA polymerase I (KF exo-) (Escherichia coli, UniProt P00582, D355A/E357A)
Chain of Klenow fragment of DNA polymerase I (KF exo-) (P00582 324-928 D355A/E357A limits assumed): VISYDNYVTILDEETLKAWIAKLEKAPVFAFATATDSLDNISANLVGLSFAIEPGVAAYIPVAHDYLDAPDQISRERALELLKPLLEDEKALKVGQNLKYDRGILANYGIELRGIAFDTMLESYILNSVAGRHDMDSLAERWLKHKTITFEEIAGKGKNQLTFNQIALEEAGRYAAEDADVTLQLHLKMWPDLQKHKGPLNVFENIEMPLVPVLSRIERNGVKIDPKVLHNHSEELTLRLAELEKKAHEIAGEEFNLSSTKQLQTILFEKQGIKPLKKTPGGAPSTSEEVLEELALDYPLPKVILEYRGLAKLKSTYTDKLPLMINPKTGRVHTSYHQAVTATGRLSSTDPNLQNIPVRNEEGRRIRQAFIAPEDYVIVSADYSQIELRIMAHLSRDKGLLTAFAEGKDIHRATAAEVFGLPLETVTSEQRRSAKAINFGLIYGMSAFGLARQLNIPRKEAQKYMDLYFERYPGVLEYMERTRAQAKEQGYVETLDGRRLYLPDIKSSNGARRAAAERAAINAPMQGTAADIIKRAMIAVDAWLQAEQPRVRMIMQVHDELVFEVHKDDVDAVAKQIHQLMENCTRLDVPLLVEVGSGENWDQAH

T1 sequence (Q51334 with tags, fused parts or gaps DEL493-1029): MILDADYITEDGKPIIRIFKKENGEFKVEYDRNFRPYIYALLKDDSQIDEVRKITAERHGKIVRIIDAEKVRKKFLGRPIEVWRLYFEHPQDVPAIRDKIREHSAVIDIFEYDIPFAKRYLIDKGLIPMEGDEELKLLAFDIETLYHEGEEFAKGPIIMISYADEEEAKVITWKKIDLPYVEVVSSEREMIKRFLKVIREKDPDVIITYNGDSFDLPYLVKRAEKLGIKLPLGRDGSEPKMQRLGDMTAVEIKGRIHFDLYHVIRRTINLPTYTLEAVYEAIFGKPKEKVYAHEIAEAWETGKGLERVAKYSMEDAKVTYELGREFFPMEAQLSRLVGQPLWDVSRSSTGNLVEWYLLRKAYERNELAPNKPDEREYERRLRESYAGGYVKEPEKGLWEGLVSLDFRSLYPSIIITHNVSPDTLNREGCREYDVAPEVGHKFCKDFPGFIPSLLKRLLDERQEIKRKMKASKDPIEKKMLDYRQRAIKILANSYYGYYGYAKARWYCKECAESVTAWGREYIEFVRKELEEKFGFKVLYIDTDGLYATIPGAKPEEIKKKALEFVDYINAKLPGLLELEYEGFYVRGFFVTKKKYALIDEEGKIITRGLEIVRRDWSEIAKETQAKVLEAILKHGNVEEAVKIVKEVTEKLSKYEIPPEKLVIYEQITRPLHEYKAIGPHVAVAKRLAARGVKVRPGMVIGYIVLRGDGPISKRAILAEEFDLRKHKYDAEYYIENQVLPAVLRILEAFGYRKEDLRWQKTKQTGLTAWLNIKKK

Question: Which “amplification of the DNA fragment containing Ds” value (DeepVent DNA polymerase [1]) does the source give for `NCCCCCC(=O)NCC#Cc1cc([N+](=O)[O-])n([C@H]2C[C@H](O)[C@@H](COP(=O)(O)OP(=O)(O)OP(=O)(O)O)O2)c1` [NH2-hx-dPnTP, 1-(2-deoxy-β-D-ribofuranosyl)-4-[3-(6-amino-hexanamide)-1-propynyl]-2-nitropyrrole 5′-triphosphate] here?
Answer: about 10^8 times

Question: And the “conservation of the unnatural base Ds in DNA (sequencing analysis)” value (DeepVent DNA polymerase [1])?
Answer: almost completely conserved

Question: What about the “conservation of both two sites of the unnatural base Ds in DNA (sequencing pattern analysis)” value (DeepVent DNA polymerase [2]) of the same molecule?
Answer: almost completely conserved

Question: And the “incorporation efficiency into Ds relative to that of the Pn substrate” value [3]?
Answer: about twice

Question: What about the “incorporation efficiency into natural bases in the template strand” value [3] of the same molecule?
Answer: lower than the incorporation efficiency into Ds
